How the values were obtained:
[1] = biological target: over 30 brain receptors or channels; assay: NIMH-PDSP broad-panel counter screening; format: binding; conditions: 10 μM
[2] = test system: HEK293 cells lacking GPR52; assay: cAMP control study in HEK293 cells lacking GPR52; format: cell-based, human
hERG = hERG (Homo sapiens, UniProt Q12809); assay: NIMH-PDSP counter screening, hERG binding; conditions: 10 μM
human GPR52 = human GPR52 (Homo sapiens, UniProt Q9Y2T5); assay: Glosensor cAMP assay in HEK293 cells transiently expressing human GPR52; format: cell-based; conditions: for decreased EC50 (loss of potency): comparator not stated
human GPR52, sequence (Q9Y2T5 whole entry): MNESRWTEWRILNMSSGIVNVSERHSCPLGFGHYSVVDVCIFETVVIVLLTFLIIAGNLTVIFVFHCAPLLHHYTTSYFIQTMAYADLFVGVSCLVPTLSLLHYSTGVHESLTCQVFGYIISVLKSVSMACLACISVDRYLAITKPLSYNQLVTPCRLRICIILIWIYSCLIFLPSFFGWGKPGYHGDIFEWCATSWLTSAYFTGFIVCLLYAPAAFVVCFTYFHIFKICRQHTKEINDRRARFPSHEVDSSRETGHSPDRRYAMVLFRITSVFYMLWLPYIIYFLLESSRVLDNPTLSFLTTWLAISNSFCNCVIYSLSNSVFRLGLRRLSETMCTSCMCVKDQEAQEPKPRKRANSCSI

hERG, sequence (Q12809 whole entry): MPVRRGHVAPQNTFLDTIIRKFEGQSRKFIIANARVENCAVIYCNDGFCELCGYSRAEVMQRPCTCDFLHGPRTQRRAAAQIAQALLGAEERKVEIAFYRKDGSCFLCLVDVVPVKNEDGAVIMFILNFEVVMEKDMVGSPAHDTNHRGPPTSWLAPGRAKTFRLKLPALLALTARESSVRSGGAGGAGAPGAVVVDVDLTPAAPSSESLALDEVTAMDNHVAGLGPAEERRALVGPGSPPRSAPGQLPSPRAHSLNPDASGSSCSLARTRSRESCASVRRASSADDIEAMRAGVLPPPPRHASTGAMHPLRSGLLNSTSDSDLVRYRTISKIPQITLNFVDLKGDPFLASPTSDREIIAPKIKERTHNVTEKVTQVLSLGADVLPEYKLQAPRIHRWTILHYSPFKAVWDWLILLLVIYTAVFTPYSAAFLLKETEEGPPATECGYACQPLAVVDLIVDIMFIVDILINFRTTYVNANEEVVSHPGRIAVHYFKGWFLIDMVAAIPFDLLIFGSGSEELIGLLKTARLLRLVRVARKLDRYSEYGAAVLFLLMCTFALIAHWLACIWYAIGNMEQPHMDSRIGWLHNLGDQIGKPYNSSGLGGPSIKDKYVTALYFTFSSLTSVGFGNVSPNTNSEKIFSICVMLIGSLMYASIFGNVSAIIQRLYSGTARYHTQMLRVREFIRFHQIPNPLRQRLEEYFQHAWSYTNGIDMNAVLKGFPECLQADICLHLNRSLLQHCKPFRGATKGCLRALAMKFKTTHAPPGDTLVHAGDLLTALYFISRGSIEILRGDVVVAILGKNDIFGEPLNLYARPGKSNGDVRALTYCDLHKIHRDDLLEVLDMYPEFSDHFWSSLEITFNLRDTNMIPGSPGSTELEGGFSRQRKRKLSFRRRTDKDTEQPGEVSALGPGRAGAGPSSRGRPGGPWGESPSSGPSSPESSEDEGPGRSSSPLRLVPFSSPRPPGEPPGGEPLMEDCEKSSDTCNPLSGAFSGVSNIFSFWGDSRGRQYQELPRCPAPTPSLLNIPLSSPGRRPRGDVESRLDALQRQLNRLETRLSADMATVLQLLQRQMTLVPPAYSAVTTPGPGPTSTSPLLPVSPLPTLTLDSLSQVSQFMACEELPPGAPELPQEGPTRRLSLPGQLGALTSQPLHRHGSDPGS

O=C(NCCO)c1cccc2c1CCN2c1cc(Cc2cc(F)cc(C(F)(F)F)c2)ncn1 [Compound 12c, 1-(6-(3-Fluoro-5-(trifluoromethyl)benzyl)pyrimidin-4-yl)-N-(2-hydroxyethyl)indoline-4-carboxamide]
binding affinity (Ki) at panel [1]: no significant binding affinity | cAMP increase in cells lacking GPR52 [2]: did not increase cAMP | hERG potassium channel binding activity (hERG): did not show any

O=C(NCCO)c1cccc2c1CCN2c1nncc(Cc2cc(F)cc(C(F)(F)F)c2)c1Cl [Compound 12f, 1-(4-Chloro-5-(3-fluoro-5-(trifluoromethyl)benzyl)-pyridazin-3-yl)-N-(2-hydroxyethyl)indoline-4-carboxamide]
decreased EC50 (loss of potency) (human GPR52): > 4 fold

Cc1c(Cc2cc(F)cc(C(F)(F)F)c2)cnnc1N1CCc2c(C(=O)NCCO)cccc21 [Compound 12e, 1-(5-(3-Fluoro-5-(trifluoromethyl)benzyl)-4-methylpyridazin-3-yl)-N-(2-hydroxyethyl)indoline-4-carboxamide]
decreased EC50 (loss of potency) (human GPR52): > 4 fold

O=C(NCCO)c1cccc2c1CCN2c1cc(Cc2ccccc2C(F)(F)F)ncn1 [Compound 23b, N-(2-Hydroxyethyl)-1-(6-(2-(trifluoromethyl)benzyl)-pyrimidin-4-yl)indoline-4-carboxamide]
loss of potency relative to 23a (human GPR52; EC50 vs compound 23a): > 7 fold
